Values of other authors, collected in US11382851B2, “Hair dye composition containing at least one organic silicon compound, a direct dye and a film forming hydrophobic polymer” (Henkel AG & Co. KGaA, priority 2018, dated 2022).

Settings: about 25° C.

Row | SMILES | solubility in water (in words) | solubility in water
1 | CCN(Cc1cccc(S(=O)(=O)[O-])c1)c1ccc(C(=C2C=CC(=[N+](CC)Cc3cccc(S(=O)(=O)[O-])c3)C=C2)c2ccccc2S(=O)(=O)[O-])cc1.[Na+].[Na+] [Acid Blue 9] |  | more than 20 % by weight
2 | O=S(=O)([O-])c1ccc(N=Nc2c(O)ccc3ccccc23)cc1.[Na+] [Acid Orange 7, sodium salt of 4-[(2-hydroxy-1-naphthyl)azo]benzene sulphonate] |  | more than 7 g/L
3 | Nc1cc(S(=O)(=O)[O-])cc2cc(S(=O)(=O)[O-])c(N=Nc3ccccc3)c(O)c12.[Na+].[Na+] [Acid Red 33, disodium salt of 5-amino-4-hydroxy-3-(phenylazo)-naphthalene-2,7-disulphonate] |  | about 2.5 g/L
4 | O=C([O-])c1c(Cl)c(Cl)c(Cl)c(Cl)c1-c1c2c(Br)cc(=O)c(Br)c-2oc2c(Br)c(O)cc(Br)c12.O=C([O-])c1c(Cl)c(Cl)c(Cl)c(Cl)c1-c1c2c(Br)cc(=O)c(Br)c-2oc2c(Br)c(O)cc(Br)c12.[Na+].[Na+] [Acid Red 92, disodium salt of 3,4,5,6-tetrachloro-2-(1,4,5,8-tetrabromo-6-hydroxy-3-oxoxanthen-9-yl)benzoic acid] |  | greater than 10 g/L
5 | O=C([O-])C1=NN(c2ccc(S(=O)(=O)[O-])cc2)C(=O)C1N=Nc1ccc(S(=O)(=O)[O-])cc1.[Na+].[Na+].[Na+] (centres unmarked) [Acid Yellow 23, trisodium salt of 4,5-dihydro-5-oxo-1-(4-sulfophenyl)-4-((4-sulfophenyl)azo)-1H-pyrazole-3-carboxylic acid] | highly soluble in water | 
